Several values for one entry are separate records, joined by “and”; a condition that tells them apart may be missing. Identical values can stand only once. Toxic doses and inconclusive results are not listed. No stated cut-off is given here; in the data, active means T/C of 150% or more; inactive means T/C below 125%.
System: L1210 leukemia ip in BDF1 mice, survival T/C
Assay: NCI In Vivo Anticancer Drug Screen. Data for tumor model L1210 Leukemia (intraperitoneal) in B6D2F1 (BDF1) mice
Details: endpoint: mean survival time, higher = longer survival
Procedure, shortened: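 Tumor cells were implanted, animals were treated, and survival was followed. The result divides the treated measurement by the vehicle-control measurement.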

[1] = dose: 100.0 mg/kg/injection, schedule: Q01DX009 (ip), vehicle: other
[2] = dose: 200.0 mg/kg/injection, schedule: Q01DX009 (ip), vehicle: other
[3] = dose: 50.0 mg/kg/injection, schedule: Q01DX001 (ip), vehicle: saline
[4] = dose: 100.0 mg/kg/injection, schedule: Q01DX001 (ip), vehicle: saline
[5] = dose: 200.0 mg/kg/injection, schedule: Q01DX001 (ip), vehicle: saline
[6] = dose: 400.0 mg/kg/injection, schedule: Q01DX001 (ip), vehicle: saline

Measured: T/C

O=[N+]([O-])c1ccc(/C=C\c2ccncc2)cc1
inactive: dose: 100.0 mg/kg/injection, schedule: Q01DX001 (ip), vehicle: carboxymethylcellulose (CMC) 101 % of control | dose: 100.0 mg/kg/injection, schedule: Q01DX009 (ip), vehicle: carboxymethylcellulose (CMC) 100 % of control | dose: 100.0 mg/kg/injection, schedule: Q04DX002 (ip), vehicle: carboxymethylcellulose (CMC) 103 % of control and 108 % of control | dose: 100.0 mg/kg/injection, schedule: Q04DX003 (ip), vehicle: carboxymethylcellulose (CMC) 100 % of control | dose: 200.0 mg/kg/injection, schedule: Q01DX001 (ip), vehicle: carboxymethylcellulose (CMC) 105 % of control | dose: 200.0 mg/kg/injection, schedule: Q01DX009 (ip), vehicle: carboxymethylcellulose (CMC) 98 % of control | dose: 200.0 mg/kg/injection, schedule: Q04DX002 (ip), vehicle: carboxymethylcellulose (CMC) 100 % of control | dose: 200.0 mg/kg/injection, schedule: Q04DX003 (ip), vehicle: carboxymethylcellulose (CMC) 115 % of control | dose: 400.0 mg/kg/injection, schedule: Q01DX001 (ip), vehicle: carboxymethylcellulose (CMC) 95 % of control | dose: 400.0 mg/kg/injection, schedule: Q04DX002 (ip), vehicle: carboxymethylcellulose (CMC) 100 % of control | dose: 400.0 mg/kg/injection, schedule: Q04DX003 (ip), vehicle: carboxymethylcellulose (CMC) 104 % of control

CCC(C(O)c1ccc(F)cc1)C(O)(C(F)(F)F)C(F)(F)F (configuration not stated)
inactive: dose: 50.0 mg/kg/injection, schedule: Q01DX009 (ip), vehicle: other 93 % of control | [1] 102 % of control | dose: 100.0 mg/kg/injection, schedule: Q04DX003 (ip), vehicle: saline with Tween-80 101 % of control | [2] 98 % of control | dose: 200.0 mg/kg/injection, schedule: Q04DX003 (ip), vehicle: saline with Tween-80 100 % of control | dose: 400.0 mg/kg/injection, schedule: Q04DX003 (ip), vehicle: saline with Tween-80 90 % of control

COc1ccc(C(=O)CC(C#N)c2ccc(OC)c(OC)c2)cc1OC (configuration not stated)
inactive: dose: 100.0 mg/kg/injection, schedule: Q01DX009 (ip), vehicle: saline with Tween-80 100 % of control | dose: 200.0 mg/kg/injection, schedule: Q01DX009 (ip), vehicle: saline with Tween-80 96 % of control | dose: 400.0 mg/kg/injection, schedule: Q01DX009 (ip), vehicle: saline with Tween-80 100 % of control

CN=C(NC)c1ccc(NC(=NC)c2ccc(C(=NC)Nc3ccc(C(=NC)NC)cc3)cc2)cc1
inactive: dose: 0.5 mg/kg/injection, schedule: Q01DX Z (ip), vehicle: saline 96 % of control | dose: 0.8 mg/kg/injection, schedule: Q01DX Z (ip), vehicle: saline 94 % of control | dose: 1.2 mg/kg/injection, schedule: Q01DX Z (ip), vehicle: saline 100 % of control | dose: 1.7 mg/kg/injection, schedule: Q01DX Z (ip), vehicle: saline 105 % of control | dose: 1.77 mg/kg/injection, schedule: Q01DX Z (ip), vehicle: saline 98 % of control | dose: 2.66 mg/kg/injection, schedule: Q01DX Z (ip), vehicle: saline 104 % of control | dose: 4.0 mg/kg/injection, schedule: Q01DX Z (ip), vehicle: saline 89 % of control | dose: 6.0 mg/kg/injection, schedule: Q01DX Z (ip), vehicle: saline 93 % of control and 103 % of control

CCOC=N
inactive: [3] 95 % of control | [4] 95 % of control | [5] 97 % of control | [6] 101 % of control

COC(=O)[C@H]1[C@H]2C[C@@H]3c4[nH]c5ccccc5c4CCN3C[C@H]2C[C@@H](OC(=O)c2cc(OC)c(OC)c(OC)c2)[C@@H]1OC
inactive: dose: 0.23 mg/kg/injection, schedule: Q01DX009 (ip), vehicle: Klucel (hydroxypropylcellulose) (HPC) 93 % of control | dose: 0.23 mg/kg/injection, schedule: Q04DX003 (ip), vehicle: saline 95 % of control | dose: 0.46 mg/kg/injection, schedule: Q01DX009 (ip), vehicle: Klucel (hydroxypropylcellulose) (HPC) 90 % of control | dose: 0.46 mg/kg/injection, schedule: Q04DX003 (ip), vehicle: saline 104 % of control | dose: 0.93 mg/kg/injection, schedule: Q01DX009 (ip), vehicle: Klucel (hydroxypropylcellulose) (HPC) 101 % of control | dose: 0.93 mg/kg/injection, schedule: Q04DX003 (ip), vehicle: saline 112 % of control | dose: 1.87 mg/kg/injection, schedule: Q01DX009 (ip), vehicle: Klucel (hydroxypropylcellulose) (HPC) 88 % of control | dose: 1.87 mg/kg/injection, schedule: Q04DX003 (ip), vehicle: saline 98 % of control | dose: 3.75 mg/kg/injection, schedule: Q04DX003 (ip), vehicle: saline 101 % of control

O=C(/C=C/c1ccc([N+](=O)[O-])cc1)Nc1ccc(S(=O)(=O)F)cc1
inactive: [4] 96 % of control | dose: 100.0 mg/kg/injection, schedule: Q01DX009 (ip), vehicle: Klucel (hydroxypropylcellulose) (HPC) 94 % of control | [5] 101 % of control | dose: 200.0 mg/kg/injection, schedule: Q01DX009 (ip), vehicle: Klucel (hydroxypropylcellulose) (HPC) 89 % of control | [6] 100 % of control | dose: 400.0 mg/kg/injection, schedule: Q01DX009 (ip), vehicle: Klucel (hydroxypropylcellulose) (HPC) 88 % of control

CCOC(=O)c1cc(=O)c2c(ccc3cc(OC)ccc32)[nH]1
inactive: dose: 6.25 mg/kg/injection, schedule: Q04DX002 (ip), vehicle: carboxymethylcellulose (CMC) 101 % of control and 89 % of control | dose: 12.5 mg/kg/injection, schedule: Q01DX001 (ip), vehicle: carboxymethylcellulose (CMC) 105 % of control | dose: 12.5 mg/kg/injection, schedule: Q01DX009 (ip), vehicle: carboxymethylcellulose (CMC) 94 % of control and 105 % of control | dose: 12.5 mg/kg/injection, schedule: Q04DX003 (ip), vehicle: carboxymethylcellulose (CMC) 100 % of control | dose: 25.0 mg/kg/injection, schedule: Q01DX001 (ip), vehicle: carboxymethylcellulose (CMC) 105 % of control | dose: 25.0 mg/kg/injection, schedule: Q01DX009 (ip), vehicle: carboxymethylcellulose (CMC) 97 % of control and 98 % of control | dose: 25.0 mg/kg/injection, schedule: Q04DX003 (ip), vehicle: carboxymethylcellulose (CMC) 93 % of control | dose: 50.0 mg/kg/injection, schedule: Q01DX001 (ip), vehicle: carboxymethylcellulose (CMC) 94 % of control | dose: 50.0 mg/kg/injection, schedule: Q01DX009 (ip), vehicle: carboxymethylcellulose (CMC) 94 % of control and 88 % of control | dose: 50.0 mg/kg/injection, schedule: Q04DX003 (ip), vehicle: carboxymethylcellulose (CMC) 100 % of control

CC1=CCC2C(C)(C)CCCC2(C)C1CO (configuration not stated)
inactive: dose: 75.0 mg/kg/injection, schedule: Q01DX001 (ip), vehicle: saline 98 % of control | dose: 150.0 mg/kg/injection, schedule: Q01DX001 (ip), vehicle: saline 100 % of control | dose: 300.0 mg/kg/injection, schedule: Q01DX001 (ip), vehicle: saline 95 % of control

CC(C)(C)NC(=O)NCc1cccc2ccccc12
inactive: [1] 103 % of control | [2] 95 % of control | dose: 400.0 mg/kg/injection, schedule: Q01DX009 (ip), vehicle: other 90 % of control

CC1(C)CCCC2(C)C3CCC(C31)C2OC(=O)c1ccc([N+](=O)[O-])cc1 (configuration not stated)
inactive: dose: 100.0 mg/kg/injection, schedule: Q01DX001 (ip), vehicle: Klucel (hydroxypropylcellulose) (HPC) 101 % of control | dose: 200.0 mg/kg/injection, schedule: Q01DX001 (ip), vehicle: Klucel (hydroxypropylcellulose) (HPC) 98 % of control | dose: 400.0 mg/kg/injection, schedule: Q01DX001 (ip), vehicle: Klucel (hydroxypropylcellulose) (HPC) 93 % of control

CC(=O)Nc1ncn[nH]1
inactive: [3] 98 % of control | [4] 98 % of control | [5] 101 % of control | [6] 101 % of control

O=C(/C(=C/c1ccc(Cl)cc1)c1ccccc1)c1ccc(O)cc1
inactive: [5] 92 % of control | [6] 86 % of control
